Measured values published in patent US7288544B2, “Pyrimidine compounds useful as N-type calcium channel antagonists” (Ajinomoto Co., Inc., priority 2000, dated 2007).
Where two headings read alike, the source gives them in different places.

What was measured:
L-type calcium channels = molecular target: T1, L-type calcium channels (Rattus norvegicus, UniProt P22002); test: Antagonistic activity on L-type calcium channels (relaxation of KCl-induced contraction of isolated rat thoracic aorta); settings: isolated Wistar rat thoracic aorta; for L-type inhibition pIC50: Table 21
T1 construct: The thoracic aorta isolated from a Wistar rat was cut to obtain ring-shaped samples; from tissue; host or cells: isolated Wistar rat thoracic aorta rings, endothelium removed
Procedure: (Test Example) Antagonistic Activity on L-Type Calcium Channels:
The activity of the dihydropyrimidine derivatives of the present invention to inhibit L-type calcium channels was determined by the following method in which the relaxation reaction on the KCl-induced contraction of isolated rat thoracic aorta was employed.
1) Method of Preparation of Rat Thoracic Aorta:
The thoracic aorta isolated from a Wistar rat was cut to obtain ring-shaped samples having a width of about 3 mm. The endothelial cells of the samples were mechanically removed. The samples were then suspended in a strain gage in Tyrode's solution (158.3 mM of NaCl, 4.0 mM of KCl, 1.05 mM of MgCl2, 0.42 mM of NaH2PO4, 10 mM of NaHCO, 2 mM of CaCl2 and 5 mM of glucose) in which a gaseous mixture of O2 (95%) and CO2 (5%) was introduced. A static tension of 2 g was applied hereto. The tension of the blood vessel was amplified with a transducer and a tension amplifier (EF-601G; Nihon Koden Corporation) and recorded with a multi-pen recorder (Rikadenki Kogyo Co., Ltd.). The experiments were conducted at 37° C.
2) Measurment of Relaxation Response Against KCl-Induced Contraction:
After the tension had been stabilized, the solution in the sample tank was replaced with High K^+ Tyrode's solution (112.3 mM of NaCl, 50 mM of KCl, 1.05 mM of MgCl2, 0.42 mM of NaH2PO4, 10 mM of NaHCO3, 2 mM of CaCl2 and 5 mM of glucose) to conduct the contraction reaction. Thirty minutes after, the solution in the sample tank was replaced with the normal Tyrode's solution. The solution in the sample tank was again replaced with the High K^+ Tyrode's solution and the contraction reaction was observed. After attaining the maximum contraction reaction, the test compound was cumulatively added at intervals of […] to attain concentrations of 10^−9, 10^−8, 10^−7 and 10^−6 M. The inhibitory rate of the test compound on the maximum contraction reaction was employed as the index of the inhibition activity on L-type calcium channels.

N-type calcium channels = molecular target: T2, N-type calcium channels (Homo sapiens, UniProt Q00975); test: Antagonistic activity on N-type calcium channels (fluorescence dye method, IMR-32 cells); type: cell-based; settings: for inhibition at 10 µM: 10 μM test compound, read-out: N-type inhibition (inhibition rate (%) at 10 μM); for IC50: 60 mM KCl stimulation, 1 μM Nifedipine, Table 20, read-out: N-type inhibition pIC50 (converted)
T2 construct: Human neuroblastoma cells IMR-32 were obtained from ATCC; host or cells: IMR-32 human neuroblastoma cells, differentiated with dibutyl cAMP and 5-bromodeoxyuridine
T2 sequence (Q00975 whole entry): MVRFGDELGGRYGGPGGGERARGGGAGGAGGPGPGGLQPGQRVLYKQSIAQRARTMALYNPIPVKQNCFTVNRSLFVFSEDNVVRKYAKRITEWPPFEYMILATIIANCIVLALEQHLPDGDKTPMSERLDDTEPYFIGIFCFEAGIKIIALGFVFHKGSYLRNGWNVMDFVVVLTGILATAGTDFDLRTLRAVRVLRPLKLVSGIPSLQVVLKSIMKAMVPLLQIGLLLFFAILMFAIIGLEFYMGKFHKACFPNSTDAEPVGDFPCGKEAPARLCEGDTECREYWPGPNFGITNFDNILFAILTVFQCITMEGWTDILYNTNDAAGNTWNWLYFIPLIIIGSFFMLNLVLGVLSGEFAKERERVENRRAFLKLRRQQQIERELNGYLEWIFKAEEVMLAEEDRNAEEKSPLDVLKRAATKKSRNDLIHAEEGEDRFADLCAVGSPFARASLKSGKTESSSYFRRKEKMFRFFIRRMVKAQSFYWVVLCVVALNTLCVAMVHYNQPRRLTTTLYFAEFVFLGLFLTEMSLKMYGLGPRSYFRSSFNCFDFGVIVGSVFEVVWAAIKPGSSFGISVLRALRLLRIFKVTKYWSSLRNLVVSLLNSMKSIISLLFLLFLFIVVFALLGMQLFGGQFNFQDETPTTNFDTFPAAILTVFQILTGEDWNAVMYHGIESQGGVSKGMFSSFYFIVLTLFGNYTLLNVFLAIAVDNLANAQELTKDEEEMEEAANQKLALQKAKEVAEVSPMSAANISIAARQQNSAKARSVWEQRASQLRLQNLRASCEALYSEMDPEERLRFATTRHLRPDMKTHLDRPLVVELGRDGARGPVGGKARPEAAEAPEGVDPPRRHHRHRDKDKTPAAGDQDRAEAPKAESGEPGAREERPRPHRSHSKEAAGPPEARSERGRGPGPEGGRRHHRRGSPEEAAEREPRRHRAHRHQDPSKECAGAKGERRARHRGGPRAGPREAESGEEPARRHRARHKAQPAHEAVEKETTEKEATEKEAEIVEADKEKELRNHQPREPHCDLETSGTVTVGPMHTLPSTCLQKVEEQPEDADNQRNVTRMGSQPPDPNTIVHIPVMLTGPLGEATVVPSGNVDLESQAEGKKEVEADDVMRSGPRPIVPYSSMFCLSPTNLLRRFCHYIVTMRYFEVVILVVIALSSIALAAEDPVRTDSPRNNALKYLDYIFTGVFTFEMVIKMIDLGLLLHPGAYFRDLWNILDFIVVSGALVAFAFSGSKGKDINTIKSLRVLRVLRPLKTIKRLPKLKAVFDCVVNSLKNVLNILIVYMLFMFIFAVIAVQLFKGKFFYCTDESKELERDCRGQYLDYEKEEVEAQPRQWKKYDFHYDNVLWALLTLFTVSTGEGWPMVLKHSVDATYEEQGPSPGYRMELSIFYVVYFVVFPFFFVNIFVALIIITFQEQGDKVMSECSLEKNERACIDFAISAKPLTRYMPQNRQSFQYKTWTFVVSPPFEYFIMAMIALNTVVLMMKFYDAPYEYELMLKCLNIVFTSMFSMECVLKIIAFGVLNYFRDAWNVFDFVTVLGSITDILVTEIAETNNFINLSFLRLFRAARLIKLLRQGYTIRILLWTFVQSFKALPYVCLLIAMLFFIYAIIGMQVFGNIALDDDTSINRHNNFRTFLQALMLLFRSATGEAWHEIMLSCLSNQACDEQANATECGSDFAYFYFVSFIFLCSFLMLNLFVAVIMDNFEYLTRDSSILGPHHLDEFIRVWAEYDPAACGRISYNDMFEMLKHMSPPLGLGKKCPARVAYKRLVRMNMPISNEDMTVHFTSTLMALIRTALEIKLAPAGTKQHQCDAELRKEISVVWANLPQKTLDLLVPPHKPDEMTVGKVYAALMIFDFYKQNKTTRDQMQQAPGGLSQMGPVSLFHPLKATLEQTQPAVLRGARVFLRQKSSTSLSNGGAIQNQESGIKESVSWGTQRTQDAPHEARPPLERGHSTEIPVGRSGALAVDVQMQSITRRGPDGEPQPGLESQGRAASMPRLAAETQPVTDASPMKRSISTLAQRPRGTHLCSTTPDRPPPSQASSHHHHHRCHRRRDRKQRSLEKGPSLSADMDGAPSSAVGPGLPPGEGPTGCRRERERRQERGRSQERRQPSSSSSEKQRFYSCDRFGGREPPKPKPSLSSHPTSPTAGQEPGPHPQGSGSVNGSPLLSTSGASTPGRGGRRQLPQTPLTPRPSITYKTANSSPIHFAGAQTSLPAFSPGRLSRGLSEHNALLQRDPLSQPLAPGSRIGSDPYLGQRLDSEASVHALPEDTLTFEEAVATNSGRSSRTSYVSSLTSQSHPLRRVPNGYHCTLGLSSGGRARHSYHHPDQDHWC
T2 sequence (Q02641 whole entry partner): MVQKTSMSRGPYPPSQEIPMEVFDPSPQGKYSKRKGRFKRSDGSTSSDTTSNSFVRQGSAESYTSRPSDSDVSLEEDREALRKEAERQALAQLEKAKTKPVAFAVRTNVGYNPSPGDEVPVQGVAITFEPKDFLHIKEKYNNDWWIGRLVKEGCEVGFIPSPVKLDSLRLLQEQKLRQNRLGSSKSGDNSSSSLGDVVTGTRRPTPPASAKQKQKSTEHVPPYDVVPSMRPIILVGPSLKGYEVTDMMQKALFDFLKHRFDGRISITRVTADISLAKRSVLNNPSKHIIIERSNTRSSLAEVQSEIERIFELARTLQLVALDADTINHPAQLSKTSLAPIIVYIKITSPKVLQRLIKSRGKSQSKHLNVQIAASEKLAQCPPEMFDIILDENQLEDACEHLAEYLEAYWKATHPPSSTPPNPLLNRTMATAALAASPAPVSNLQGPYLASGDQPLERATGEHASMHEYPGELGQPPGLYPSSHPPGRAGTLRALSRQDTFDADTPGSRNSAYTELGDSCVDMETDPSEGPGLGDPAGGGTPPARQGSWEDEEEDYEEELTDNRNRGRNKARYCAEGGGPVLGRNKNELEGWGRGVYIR
T2 sequence (P54289 25-956 partner limits assumed): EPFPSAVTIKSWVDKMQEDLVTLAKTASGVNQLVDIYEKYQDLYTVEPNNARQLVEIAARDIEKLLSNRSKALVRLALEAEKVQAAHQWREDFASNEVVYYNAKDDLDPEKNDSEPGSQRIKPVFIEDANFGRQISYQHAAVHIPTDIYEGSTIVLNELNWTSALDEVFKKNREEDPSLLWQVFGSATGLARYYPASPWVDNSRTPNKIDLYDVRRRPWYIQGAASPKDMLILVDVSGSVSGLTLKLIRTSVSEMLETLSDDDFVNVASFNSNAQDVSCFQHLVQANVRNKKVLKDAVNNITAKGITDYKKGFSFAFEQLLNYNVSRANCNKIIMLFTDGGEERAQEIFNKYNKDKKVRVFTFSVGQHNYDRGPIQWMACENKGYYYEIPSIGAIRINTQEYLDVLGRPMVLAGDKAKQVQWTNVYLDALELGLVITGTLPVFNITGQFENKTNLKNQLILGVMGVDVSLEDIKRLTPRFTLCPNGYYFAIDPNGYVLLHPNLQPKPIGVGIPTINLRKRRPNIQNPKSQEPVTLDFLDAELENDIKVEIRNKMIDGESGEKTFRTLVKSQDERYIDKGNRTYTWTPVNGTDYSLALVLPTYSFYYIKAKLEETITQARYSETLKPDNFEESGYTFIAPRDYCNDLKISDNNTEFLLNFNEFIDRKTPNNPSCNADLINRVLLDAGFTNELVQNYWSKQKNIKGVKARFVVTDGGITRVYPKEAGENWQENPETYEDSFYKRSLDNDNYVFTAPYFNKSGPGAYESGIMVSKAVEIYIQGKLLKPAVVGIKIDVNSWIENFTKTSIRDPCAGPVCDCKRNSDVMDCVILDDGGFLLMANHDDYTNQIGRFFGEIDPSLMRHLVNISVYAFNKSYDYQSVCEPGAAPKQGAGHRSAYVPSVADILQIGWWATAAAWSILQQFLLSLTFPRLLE
T2 sequence (P54289 957-1103 partner limits assumed): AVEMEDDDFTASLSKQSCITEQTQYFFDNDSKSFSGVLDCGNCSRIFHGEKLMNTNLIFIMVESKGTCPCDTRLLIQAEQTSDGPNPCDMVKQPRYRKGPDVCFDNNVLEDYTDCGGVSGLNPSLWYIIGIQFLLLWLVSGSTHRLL
Procedure: (Test Example) Antagonistic Activity on N-Type Calcium Channels (Fluorescence Dye Method):
Human neuroblastoma cells IMR-32 were obtained from ATCC (American Type Culture Collection). The medium used was a phenol red-free Eagle minimum essential medium containing earle's salts (GIBCO) supplemented with 2 mM of L-glutamine (GIBCO), 1 mM of sodium pyruvate (pH 6.5) (GIBCO), antibiotic/antimicotic mixture (GIBCO) and 10% fetal calf serum (Cell Culture Technologies). Three ml of 1×10^5 cells/ml IMR-32 were spread on a 35 mm diameter glass dish (Iwaki Glass Co., Ltd.) which was treated with poly-L-lysin (SIGMA) and collagen (COLLAGEN VITROGEN 100, Collagen Co.). One day after cultivation, 1 mM (final concentration) of dibutyl cAMP and 2.5 μM (final concentration) of 5-bromodeoxyuridine (SIGMA) were added. After the culture for additional 10 to 14 days, the cells were subjected to the activity determination.
The medium for IMR-32 cells thus prepared was replaced with 1 ml of Phenol Red-free Eagle minimum essential medium (GIBCO) containing 2.5 μM fura-2/AM (Dojin Kagaku, Co.) and earle's salts supplement, and the incubation was conducted at 37° C. for 30 minutes. Then the medium was replaced with a recording medium (20 mM of HEPES-KOH, 115 mM of NaCl, 5.4 mM of KCl, 0.8 mM of MgCl2, 1.8 mM of CaCl2 and 13.8 mM of D-glucose). Antagonistic activity on N-type calcium channels was determined and analyzed using a fluorescence microscope (Nikon Corporation) and an image analysis device ARGUS 50 (Hamamatsu Photonics). In particular, a recording medium (20 mM of HEPES-KOH, 115 mM of NaCl, 5.4 mM of KCl, 0.8 mM of MgCl2, 1.8 mM of CaCl2 and 13.8 mM of D-glucose) containing 1 μM of Nifedipine was given to the cells by reflux by a Y-tube method for 2 minutes. Then a stimulating agent containing 60 mM of potassium chloride was rapidly given by the Y-tube method. The calcium concentration change in the cells was examined in terms of N-type calcium channel activity. Stimulating agents containing 60 mM of potassium chloride and 0.1, 1 or 10 μM of test compound were successively and rapidly given to the same cells by the Y-tube method to determine the change in calcium concentration in the cells on this occasion. Antagonistic activity on N-type calcium channel was thus calculated from the inhibition rates.
The same procedure as that of the above-described tests of the N-type calcium channel antagonistic activity of the compounds obtained in the Examples was repeated except for the following changes: stimulating agents containing 60 mM of potassium chloride and 0.1, 1 or 10 μM of test compound were successively and rapidly given by the Y-tube method. A change in calcium concentration in the cells was determined.

SD rats = test: Analgesic action in the formalin test; type: in vivo, rat; settings: 3 mg/kg p.o. 3 hours before formalin injection, counted for 60 minutes, average±standard error, control group 116 ± 8
Procedure: (Test Example) Determination of Analgesic Action (Analgesic Action in the Formalin Test) 1) Preparation of Solution of a Test Compound and its Administration
The compound was weighed and ground in a mortar. While grinding the powder, 0.5% tragacanth solution was added thereto so that a suspension was prepared to have a concentration of 0.6 mg/ml.
Three hours before the formalin injection, the compound suspension was orally administered to SD rats at a volume of 5 ml/kg (dosage; 3 mg/kg, p.o.). In the control group, 0.5% tragacanth solution was orally administered to SD rats at a volume of 5 ml/kg 3 hours before formalin injection.
2) Determination of Analgesic Action in the Formalin Test
The SD rats to which the compound was administered were introduced to a capsule. They were settled under halothane (2 to 4% in 3 L/min of oxygen gas flow rate) and 100 μl of 5% formalin solution was injected subcutaneously to their dorsal surface of left legs. After injection, determination was started when the rats came out from the anesthetic state (based on recovery of righting reflex). The number of flinching under the influence of formalin injection was counted for 60 minutes (Reference: J. Neurosci. 14: 4882-4890 (1994)). The results are shown as “average±standard error” in Table 22.

[1] = Table 20, read-out: L-type inhibition pIC50 (converted)
[2] = Table 21, read-out: L-type inhibition pIC50 (converted)

SMILES | IC50 (L-type calcium channels; [1]) [nM] | L-type inhibition pIC50 (L-type calcium channels) | inhibition at 10 µM (N-type calcium channels) [%] | IC50 (N-type calcium channels) [nM] | IC50 (L-type calcium channels; [2]) [nM] | Flinching (number) (SD rats)
CSc1nc(C)c(C(=O)NC/C=C/c2ccccc2)c(-c2cccc(Cl)c2)n1 [Example 1, 4-(3-chlorophenyl)-6-methyl-2-(methylthio)-N-(3-phenyl-2-propen-1-yl)-5-pyrimidinecarboxamide] | 2510 | 5.6 | 52 | 1580 |  | 
CCc1nc(C)c(C(=O)NCCCc2ccccc2)c(-c2cc(Cl)cc(Cl)c2)n1 [Example 103, 2-ethyl-4-(3,5-dichlorophenyl)-6-methyl-N-(3-phenylpropyl)-5-pyrimidinecarboxamide] |  |  | 74 |  | 3980 | 
CSc1nc(C)c(C(=O)NCCCc2ccccc2)c(-c2c(Cl)cccc2Cl)n1 [Example 110, 4-(2,6-dichlorophenyl)-6-methyl-2-(methylthio)-N-(3-phenylpropyl)-5-pyrimidinecarboxamide] |  |  | 77 |  | 2510 | 
Cc1nc(C)c(C(=O)N2CCNCC2)c(-c2cccc(Cl)c2)c1C(=O)OCCC(c1ccccc1)c1ccccc1 [Example 122, 4-(3-chlorophenyl)-2,6-dimethyl-5-(piperazine-1-carbonyl)nicotinic acid (3,3-diphenylpropyl) ester] | 1000 | 6.0 | 56 | 1580 |  | 61 ± 16
Cc1nc(C)c(C(=O)N2CCN(C)CC2)c(-c2cccc(Cl)c2)c1C(=O)OCCC(c1ccccc1)c1ccccc1 [Example 125, 4-(3-chlorophenyl)-2,6-dimethyl-5-(4-methylpiperazine-1-carbonyl)nicotinic acid (3,3-diphenylpropyl) ester] |  |  | 70 |  | 1260 | 62 ± 25

Continued, in another order:

IC50 (L-type calcium channels; [1]) [nM] | L-type inhibition pIC50 (L-type calcium channels) | inhibition at 10 µM (N-type calcium channels) [%] | IC50 (N-type calcium channels) [nM] | IC50 (L-type calcium channels; [2]) [nM] | SMILES | Flinching (number) (SD rats)
3160 | 5.5 | 58 | 2000 |  | CSc1nc(C)c(C(=O)NCCCc2ccccc2)c(-c2cccc(Cl)c2)n1 [Example 16, 4-(3-chlorophenyl)-6-methyl-2-(methylthio)-N-(3-phenylpropyl)-5-pyrimidinecarboxamide] | 
 |  | 63 |  | 5010 | CSc1nc(C)c(C(=O)NCCCc2ccccc2)c(-c2ccc(C)cc2C)n1 [Example 93, 4-(2,4-dimethylphenyl)-6-methyl-2-(methylthio)-N-(3-phenylpropyl)-5-pyrimidinecarboxamide] | 39 ± 11
